Measured values reported in patent publication US7358379B2, “Steroid conjugates, preparation thereof and the use thereof” (Bionature E.A. Limited, priority 2002, dated 2008).

What was measured:
[1] = system: membrane testosterone receptors in LNCaP cells; experiment: Displacement binding of [3H]testosterone on LNCaP cell membranes; set-up: species or system human; settings: 5 nM [3H]testosterone, competitor 10^-12-10^-6 M
Experimental: (§1) Cells, cultured in 150 cm^2 flasks without serum, were washed twice with phosphate-buffered saline (PBS), removed by scraping and centrifuged at 1500 rpm. Pelleted cells were homogenized by sonication in 50 mM Tris-HCl buffer pH 7.4 containing freshly added protease inhibitors (10 μg/ml PMSF and 1 μg/ml aprotinin). Unbroken cells were removed by centrifugation at 2500 g for 15 min. Membranes were obtained by centrifugation at 45,000 g for 1 hour, and washed once by the same buffer. Protein concentration was measured by the method of Bradford.
(§2) Saturation binding experiments were performed in a final volume of 0.1 ml, containing cell membranes at a final protein concentration of 2 mg/ml and at least 6 different concentrations of [^3H]testosterone (ranging 2-50 nM) without (total binding) or with (non-specific binding) a 100-fold molar excess of unlabelled androgen (DHT). […] In both types of binding experiments, after an overnight incubation at 4° C., bound radioactivity was separated by filtration under reduced pressure through GF/B filters previously soaked in 0.5% polyethylenimine (PEI) in water and rinsed three times with ice-cold Tris-HCl buffer. Filters were mixed with 4 ml scintillation cocktail and the bound radioactivity was counted in a scintillation counter (Tricarb, Series 4000, Packard) with 60% efficiency for Tritium. […]

[2] = system: membrane testosterone receptors in LNCaP cells; experiment: Saturation binding of [3H]testosterone to LNCaP cell membranes; set-up: species or system human; settings: [3H]testosterone 2-50 nM, LNCaP membranes 2 mg/ml, overnight 4° C., non-specific binding with excess DHT; read-out: KD (Scatchard analysis)
Experimental: as §1, §2

[3] = system: FAK→PI-3 kinase→Cdc42/Rac1→actin reorganization in LNCaP cells; experiment: Signalling FAK, PI-3 kinase, Cdc42/Rac1, actin reorganization (immunoprecipitation, kinase assays, affinity precipitation); format: cell-based, human
Experimental: Testosterone-BSA or DHT-treated, as well as untreated (control) cells were washed three times with ice-cold PBS and suspended in cold lysis buffer containing 1% Nonidet P-40, 20 mM Tris pH 7.4 and 137 mM NaCl, supplemented with protease and phosphatase inhibitors. Cleared lysates were preadsorbed with protein A-Sepharose for 1 h at 4° C., centrifuged and the supernatants (equal amounts of protein) were subjected to immunoprecipitation using the indicated antibodies and the protein A-Sepharose beads.
The lipid kinase activity of PI-3 kinase was measured by the method of Auger et al with minor modifications. Protein A-Sepharose beads containing immunoprecipitated phosphotyrosine proteins were washed three times with Buffer A (20 mM Tris pH 7.4, 137 mM NaCl, 1 mM CaCl2, 1 mM MgCl2, 1% Nonidet P-40, 0.1 mM Na3VO4), three times with 5 mM LiCl in 0.1 M Tris (pH 7.4) and twice with TNE (10 mM Tris pH 7.4, 150 mM NaCl, 5 mM EDTA, 0.1 mM Na3VO4). […]
For immunoblot analysis, the cell lysates or the immunoprecipitates were suspended in Laemmli's sample buffer and separated by SDS-PAGE. […] Blots were developed using the ECL system and the band intensities were quantified by PC-based image analysis (Image Analysis Inc., Ontario, Canada). […]

[4] = system: prostate cancer LNCaP cells; experiment: Cell number by tetrazolium salt assay; format: cell-based, human; settings: 24 hours
Experimental: The human prostate cancer LNCaP cell line, originally isolated from a lymph node metastasis of prostate adenocarcinoma, was purchased from DSMZ (Braunschweig, Germany). Cells were cultured in RPMI 1640 medium supplemented with 10% heat inactivated fetal bovine serum (FBS) at 37° C. in a humidified atmosphere of 5% CO2 in air. They were subcultured once a week and incubated in serum-free medium for 24 h before any experiment. All culture media were purchased from Gibco BRL (Life Technologies, Paisley, UK).
Cell number was assayed using the tetrazolium salt assay. Cells were incubated for 3 h at 37° C. with the tetrazolium salt (3-(4,5 dimethylthiazol-2-yl)-2,5 diphenyl tetrazolium bromide, Sigma, St Louis, Mo.). Living cells reduced the dye to purple formazan seen as dark blue crystals. At the end of the incubation period they were dissolved with propanol-1 and the absorbance was measure at 575 nm, within one hour.
In view of the above results, we incubated prostate cancer LNCaP cells with testosterone-BSA alone (10^−7 M) or together with Taxol® (10^−8 M) for 24 hours. […] In addition, a potentiation of the action of Taxol® by ˜7% was also found. […]

[5] = system: LNCaP tumors in nude mice; experiment: In vivo effect in nude mice bearing implanted LNCaP tumors; settings: four weeks
Experimental: FIG. 9 presents the effect of testosterone-BSA administration in nude mice, bearing implanted tumors. Arrows show the injection times of testosterone-BSA (500 μl of a 5×10^−6 M solution) with or without addition of 10 mg/kg Taxol®.
Nude mice were injected in the back with 5×10^6 LNCaP cells diluted in Matrigel® (Sigma, St Louis, Mo.) in a total volume of 0.1 ml. After 4 weeks, macroscopical tumors were developed, and treatment was initiated, as follows: Drugs, diluted in PBS were injected intraperitoneally 3 times per week, in a total volume of 0.5 ml. Animals were divided in four groups: The first group received 5×10^−6 M BSA. The second group was injected with 5×10^−6 M testosterone-BSA conjugate. The third group was injected with 10 mg/ml Taxol®, while in the fourth group a combination of testosterone-BSA and Taxol® was introduced. Tumors were measured after four weeks of treatment. Tumors were excised, measured, weighted and send to a pathologist for further analysis.
As presented in FIG. 9, testosterone-BSA induced a time-dependent decrease in tumor mass by 53%. Addition of Taxol® produces a dramatic decrease of tumor weight by 77%. […] Therefore it is possible that the decrease if tumor mass could be greater for longer periods of treatment In addition, apoptosis was observed histologically in all tumors studied.

[6] = system: LNCaP cells; experiment: Confocal laser microscopy of membrane binding on LNCaP cells; format: cell-based, human; settings: 30 min incubation
Experimental: LNCaP cells were allowed to grow on poly-L-lysine coated glass coverslips for at least 48 hours before culture medium was replaced with serum free medium. After a 24-hour period, cells were washed twice with PBS and incubated with Testosterone-BSA-FITC for 30 min in the presence or in the absence of DHT. As a negative control BSA-FITC was used. Cells were then washed twice with PBS and fixed with 2% PFA in PBS for 30 min. Coverslips were mounted on to slides using a 1:1 (v/v) mixture of glycerol and Vestashield (Vector, Burlingame, Calif.). Specimens were analysed using a confocal laser scanning microscope (CLSM) (Leica TCS-NT, Lasertechnik, Heidelberg, Germany).
(§3) The presence of membrane testosterone receptors was equally identified using the testosterone analog testosterone3-(O-carboxymethyl)oxime-BSA-FITC, obtained from Sigma (St Louis, Mo.). This analog is not capable to penetrate the cells, because of a covalent attachment of the steroid with BSA. […] The membrane binding was equally verified by confocal laser microscopy, as shown in the right panel of FIG. 2.

[7] = system: actin cytoskeleton of LNCaP human prostate cancer cells; experiment: Determination of monomeric and polymerized actin; format: cell-based; settings: 10^-7 M, 10 min
Experimental: For measurements of the monomeric (Triton soluble) and polymerized (Triton insoluble) actin, LNCaP cells were incubated for 10 min with or without DHT or testosterone-BSA (10^−7 M). Then, 500 μl of Triton-extraction buffer (0.3% TritonX-100, 5 mM Tris, pH 7.4, 2 mM EGTA, 300 mM sucrose, 2 μM phalloidin, 1 mM PMSF, 10 μg/ml leupeptin, 20 μg/ml aprotinin, 1 mM sodium orthovanadate, and 50 mM NaF) were added, and the mixture was incubated for 5 minutes on ice. After removing the buffer, soluble proteins were precipitated with equal volumes of 6% PCA. The Triton-insoluble fraction remaining on the plate was precipitated with 1 ml of 3% PCA. Equal volumes of each fraction were subjected to SDS-polyacrylamide gel electrophoresis (SDS-PAGE). The resulting protein-bands were transferred onto nitrocellulose membrane, and the membrane was blocked with 5% nonfat dry milk in TBS-T (20 mM Tris pH 7.6, 137 mM NaCl, 0.05% Tween-20) for 1 h at room temperature. Antibody solutions (in TBS-T) were added for 1 h at room temperature [monoclonal mouse anti-actin first antibody (Amersham-Pharmacia, Bukinghamshire, UK) and second horseradish peroxidase-coupled antibody (Chemicon, Temecula, Calif.)]. Blots were developed using the ECL system (Amersham-Pharmacia, Bukinghamshire, UK) and the band intensities were quantified by PC-based image analysis (Image Analysis Inc., Ontario, Canada). […]

[8] = system: membrane testosterone receptors in LNCaP cells; experiment: Flow cytometry detection of membrane binding on LNCaP cells; set-up: species or system human; settings: 10^-7 M
Experimental: LNCaP cells, cultured in serum free medium for 24 hrs, were detached from the culture flask by scraping and suspended in PBS at a density of 10^6 cells/ml. They were incubated at room temperature with 10^−7 M testosterone-BSA-FITC conjugate for different periods of time (1 min to 1 hour). A thousand-fold BSA-FITC was used to determine non-specific binding. Cells were analysed by flow cytometry using a Coulter Epics L-MCL apparatus (Beckman-Coulter Inc. Foullerton Calif., USA) in a sample size of 10,000 cells gated on the basis of forward and side scatter. Testosterone3-(O-carboxymethyl)oxime-BSA-FITC (named testosterone-BSA-FITC), testosterone3-(O-carboxymethyl)oxime-BSA (named testosterone-BSA), estradiol6-(O-carboxymethyl)oxime-BSA-FITC (named estradiol-BSA-FITC), progesterone3-(O-carboxymethyl)oxime-BSA-FITC (named progesterone-BSA-FITC) and BSA-FITC were obtained from Sigma (St Louis, Mo.).
as §3

Compound: C[C@]12CCC(=O)C[C@@H]1CC[C@@H]1[C@@H]2CC[C@]2(C)[C@@H](O)CC[C@@H]12 [DHT]
- displacement of radiolabeled testosterone [1]: produced a displacement of radiolabeled testosterone

Compound: CC(=O)[C@H]1CC[C@H]2[C@@H]3CCC4=CC(=O)CC[C@]4(C)[C@H]3CC[C@]12C [progesterone]
- lower affinity in displacing radiolabelled testosterone (fold) ([1]; compared with DHT): 10^2 fold

Compound: C[C@]12CC[C@H]3[C@@H](CCC4=CC(=O)CC[C@@]43C)[C@@H]1CC[C@@H]2O [testosterone]
- Kd [2]: 0.0109 µM
- activation of signalling cascade FAK→PI-3 kinase→Cdc42/Rac1→actin reorganization [3]: less active than testosterone-BSA conjugate

Compound: testosterone3-(O-carboxymethyl)oxime-BSA [testosterone-BSA]
- potentiation of the action of Taxol® ([4]; testosterone-BSA 10^-7 M together with Taxol® 10^-8 M): ~7%
- decrease of cells ([4]; testosterone-BSA alone 10^-7 M): 50%
- decrease in tumor mass ([5]; nude mice with LNCaP tumors, testosterone-BSA 5×10^-6 M i.p. 3 times per week): 53%
- decrease of tumor weight ([5]; nude mice with LNCaP tumors, testosterone-BSA 5×10^-6 M with addition of Taxol®, i.p. 3 times per week): 77%
- tolerance of treatment ([5]; nude mice, 0.5 ml of 5×10^-6 M intraperitoneally 3 times per week): supported very well
- localisation of staining (internalization) [6]: only membrane staining was found
- ratio of soluble (monomeric) to insoluble (polymerised) actin [7]: significant decrease
- time at which association with membrane receptors was observed ([8]; flow cytometry): 1 min
- time at which association with membrane receptors was maximal ([8]; flow cytometry, unchanged after 30 min): 10 min
- membrane binding by flow cytometry ([8]; room temperature): specific membrane binding
